Experimental data from PMC6295231 (Clinical cancer research : an official journal of the …, 2018).

Columns and labels:
[1] = tested on: ELK1-dependent promoter activation by AR; assay: primary screening assay; type: cell-based; settings: for IC50 for inhibition of ELK1-dependent promoter activation by AR: primary screening assay, compound dose range of 1-10μM; for IC50: Homo sapiens, HeLa, read-out: IC50 for inhibition of ELK1-dependent promoter activation by AR
[2] = tested on: activation of ELK1 by MEK/ERK; type: cell-based; settings: HeLa cells co-transfected
[3] = mouse, in vivo
in vivo = settings: SCID, mouse
[4] = tested on: AR recruitment to chromatin in LNCaP cells; assay: chromatin immunoprecipitation; type: cell-based; settings: R1881 10nM + KCI807 20uM, 2h
LNCaP cells = assay: MTT growth assay, LNCaP; settings: androgen-dependent cells; up to 20 uM
[5] = tested on: AR or AR-V7 protein level; assay: protein level of AR / AR-V7 in PC/CRPC cell lines; type: cell-based
AR-V7 = assay: hormone-independent promoter activation by AR-V7; type: cell-based; settings: relatively higher concentrations required
[6] = tested on: PDX-PR011 tumor xenograft; assay: PDX-PR011 patient-derived tumor xenograft in male SCID mice; settings: for tumor growth, PDX-PR011 xenograft: treatment from Day 1 after implantation
[7] = plasma/serum levels and metabolites of KCI807 by LC-MS/MS; settings: mice, 250 mg/kg IP alternate days, 6h after last injection
[8] = tested on: HEK293 (adenovirus transformed kidney fibroblasts); assay: growth of AR-negative cells, HEK293; type: cell-based
purified human AR = target: T1, purified human AR (Homo sapiens, UniProt P10275); assay: surface plasmon resonance, binding to immobilized AR; settings: for Kd: dissociation constant (Kd) for binding to AR, SPR, AR immobilized
T1 sequence (P10275 1-920): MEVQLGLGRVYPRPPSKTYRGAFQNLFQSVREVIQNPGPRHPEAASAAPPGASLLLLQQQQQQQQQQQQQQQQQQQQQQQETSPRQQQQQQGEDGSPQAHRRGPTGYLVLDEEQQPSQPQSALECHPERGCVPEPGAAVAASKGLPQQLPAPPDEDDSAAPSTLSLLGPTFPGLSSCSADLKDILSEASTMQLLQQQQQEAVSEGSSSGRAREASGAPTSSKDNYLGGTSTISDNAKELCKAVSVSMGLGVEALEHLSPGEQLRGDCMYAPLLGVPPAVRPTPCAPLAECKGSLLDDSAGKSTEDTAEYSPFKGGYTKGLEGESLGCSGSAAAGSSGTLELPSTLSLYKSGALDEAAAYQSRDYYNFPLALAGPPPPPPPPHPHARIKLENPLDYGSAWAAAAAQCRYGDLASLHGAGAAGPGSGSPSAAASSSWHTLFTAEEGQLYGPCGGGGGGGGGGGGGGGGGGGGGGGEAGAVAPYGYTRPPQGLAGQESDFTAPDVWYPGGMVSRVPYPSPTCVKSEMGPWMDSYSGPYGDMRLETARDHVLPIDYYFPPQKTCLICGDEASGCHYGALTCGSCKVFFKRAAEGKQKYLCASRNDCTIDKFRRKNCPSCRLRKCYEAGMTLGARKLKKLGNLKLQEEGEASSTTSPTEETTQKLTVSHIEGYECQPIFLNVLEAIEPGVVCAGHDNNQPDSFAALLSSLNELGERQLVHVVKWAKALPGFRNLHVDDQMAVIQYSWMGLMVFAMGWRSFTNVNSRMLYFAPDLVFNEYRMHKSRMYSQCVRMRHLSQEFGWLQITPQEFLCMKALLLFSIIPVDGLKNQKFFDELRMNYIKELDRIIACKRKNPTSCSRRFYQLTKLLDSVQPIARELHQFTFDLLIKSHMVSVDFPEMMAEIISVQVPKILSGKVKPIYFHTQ

[9] = tested on: HeLa (cervical cancer cells); assay: growth of AR-negative cells, HeLa; type: cell-based
22Rv1 cells = assay: MTT growth assay, 22Rv1; settings: androgen-independent cells; up to 20 uM
22Rv1 CRPC cells = assay: colony formation assay, 22Rv1
[10] = tested on: AR target genes in 22Rv1 cells; assay: real time RT-PCR of AR target genes in 22Rv1 cells; type: cell-based; settings: 10 µM, 72h
[11] = target: association of AR with ELK1 (Homo sapiens, UniProt P10275); assay: BRET assay of association of ELK1 with AR in HEK293T cells; type: cell-based; settings: pre-incubation
binding of AR to ELK1 = binding of AR to ELK1 (Homo sapiens, UniProt P10275); assay: SPR competition: binding of AR; settings: AR 200 nM
[12] = tested on: H1650 (lung adenocarcinoma cells); assay: growth of AR-negative cells, H1650; type: cell-based
ELK1 = ELK1 (Homo sapiens, UniProt P19419); assay: surface plasmon resonance, binding to immobilized ELK1; settings: SPR
[13] = tested on: DU145 (prostate cancer cells); assay: growth of AR-negative cells, DU145; type: cell-based
VCaP cells = assay: MTT growth assay, VCaP; settings: androgen-dependent cells
[14] = tested on: ARE-dependent promoter activation by AR; assay: counter screening assay; type: cell-based; settings: words
[15] = easily oxidized; ref [33], [34]; cited from earlier work
ELK1 (Homo sapiens) = ELK1 (Homo sapiens) (UniProt P19419); settings: cited from earlier work
Sequence of ELK1 (Homo sapiens) (P19419 whole entry): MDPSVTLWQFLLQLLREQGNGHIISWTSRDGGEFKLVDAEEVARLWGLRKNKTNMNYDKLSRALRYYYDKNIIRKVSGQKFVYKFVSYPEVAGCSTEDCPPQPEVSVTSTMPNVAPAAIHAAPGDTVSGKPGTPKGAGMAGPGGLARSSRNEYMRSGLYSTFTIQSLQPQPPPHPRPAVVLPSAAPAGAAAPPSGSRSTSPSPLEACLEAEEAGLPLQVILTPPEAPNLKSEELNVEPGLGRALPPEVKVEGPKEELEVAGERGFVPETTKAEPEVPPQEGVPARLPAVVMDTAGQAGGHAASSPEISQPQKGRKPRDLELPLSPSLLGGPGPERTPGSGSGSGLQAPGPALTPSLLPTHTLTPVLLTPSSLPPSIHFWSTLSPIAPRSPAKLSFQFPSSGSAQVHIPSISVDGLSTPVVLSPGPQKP

Sequence of ELK1 (P19419 whole entry): as above

Compound: O=c1cc(-c2cccc(O)c2)oc2cc(O)ccc12 [7,3’-Dihydroxyflavone]
- IC50 for inhibition of ELK1-dependent promoter activation by AR [1]: No effect

Compound: O=c1cc(-c2ccc(O)c(O)c2)oc2ccccc12 [3’.4’-Dihydroxyflavone]
- IC50 for inhibition of ELK1-dependent promoter activation by AR [1]: No effect

Compound: CC(=O)Nc1cccc(-n2c(=O)n(C3CC3)c(=O)c3c(Nc4ccc(I)cc4F)n(C)c(=O)c(C)c32)c1 [trametinib, reference compound]
- inhibition of luciferase reporter activation by MEK1 (caMEK1, Gal4-ELK1) [2]: completely inhibited

Compound: COc1c(-c2ccc(O)c(O)c2)oc2cc(O)cc(O)c2c1=O [5,7,3’,4’-Tetrahydroxy-3-methoxyflavone]
- IC50 for inhibition of ELK1-dependent promoter activation by AR [1]: No effect

Compound: O=c1cc(-c2ccccc2)oc2cc(O)cc(O)c12 [5.7-Dihydroxyflavone]
- IC50 for inhibition of ELK1-dependent promoter activation by AR [1]: No effect

Compound: O=c1cc(-c2cccc(O)c2)oc2cccc(O)c12 [KCI807, 5,3’-Dihydroxyflavone]
- immediate and peri-acute post-injection toxicity (dose determination) [3]: asymptomatic post all doses given
- half-life (in vivo): 6 h
- AR recruitment at canonical ARE enhancer sites (KLK3, TMPRSS2) [4]: did not impede
- association of AR with chromatin sites at which ELK1 recruits AR [4]: prevented association
- cell growth inhibition, MTT, LNCaP (LNCaP cells): completely inhibited cell growth
- expression of AR or AR-V7 proteins [5]: does not affect
- IC50 [1]: 0.53 µM
- hormone-independent promoter activation by splice variant AR-V7 (AR-V7): inhibited
- symptoms during PDX-PR011 study ([6]; mouse, in vivo): asymptomatic
- weight loss during PDX-PR011 study ([6]; mouse, in vivo): did not show appreciable weight loss
- tumor growth, PDX-PR011 xenograft [6]: significantly inhibited
- plasma level of unmetabolized compound (median), Day 11 [7]: 387 nM
- plasma level of unmetabolized compound (median), Day 19 [7]: 70 nM
- growth of HEK293 cells [8]: did not appreciably affect
- dissociation constant for AR relative to that for binding of ELK1 to AR (purified human AR; ELK1-AR value ref [25]): ~ 3 times
- Kd (purified human AR): 0.0692 µM
- growth of HeLa cells [9]: did not appreciably affect
- cell growth inhibition, MTT, 22Rv1 (22Rv1 cells): completely inhibited cell growth
- concentration beyond which colony growth was virtually completely inhibited (22Rv1 CRPC cells): > 125 nM
- expression of AR target genes (mRNA) [10]: decreased expression of only the genes known to be supported synergistically by ELK1 and AR
- BRET coupling between ELK1 and AR [11]: inhibited
- blocking of binding of purified AR (analyte) to immobilized ELK1 (binding of AR to ELK1): blocked binding
- growth of H1650 cells [12]: did not appreciably affect
- binding to immobilized ELK1 (ELK1): did not bind
- inhibition of luciferase reporter activation by MEK1 (caMEK1, Gal4-ELK1) [2]: did not inhibit
- growth of DU145 cells [13]: did not appreciably affect
- cell growth inhibition, MTT, VCaP (VCaP cells): most sensitive

Compound: COc1cc(-c2cc(=O)c3c(O)cc(O)cc3o2)ccc1O [5,7,4’-Trihydroxy-3’-methoxyflavone]
- IC50 for inhibition of ELK1-dependent promoter activation by AR [1]: No effect

Compound: O=c1cc(-c2ccc(O)c(O)c2)oc2cc(O)cc(O)c12 [Hit 1, 5,7,3’,4’-Tetrahydroxyflavone]
- IC50 [1]: 1.01 µM
- inhibition at 10 µM ([1]; Mus musculus, MIN6, 6 h, read-out: inhibition in the primary screen): 80 to 100%
- effect on ARE-dependent promoter activation by AR (counter screen) [14]: virtual absence of an effect
- stability in vitro [15]: highly unstable

Compound: AR (from UniProt P10275)
- Kd (ELK1 (Homo sapiens)): 0.02 µM

Compound: O=c1cc(-c2ccccc2)oc2cccc(O)c12 [5-Hydroxyflavone]
- IC50 [1]: > 10 µM

Compound: COc1ccc(-c2cc(=O)c3c(O)c(OC)c(OC)cc3o2)cc1O [5,3’-Dihydroxy-6,7,4’-trimethoxyflavone]
- IC50 [1]: 4.17 µM

Compound: O=c1cc(-c2ccc(O)cc2)oc2cccc(O)c12 [5,4’-Dihydroxyflavone]
- IC50 [1]: 5.48 µM

Compound: O=c1cc(-c2ccc(O)c(O)c2)oc2cccc(O)c12 [5,3’,4’-Trihydroxyflavone]
- IC50 [1]: 1.01 µM

Compound: O=c1cc(-c2cccc(O)c2)oc2ccccc12 [3’-Hydroxyflavone]
- IC50 for inhibition of ELK1-dependent promoter activation by AR [1]: No effect
- Kd (purified human AR): 1.43 µM

Compound: COc1ccc(-c2cc(=O)c3c(O)cc(O)cc3o2)cc1O [5,7,3’-Trihydroxy-4’-methoxyflavone]
- IC50 [1]: 1.37 µM

Compound: O=c1cc(-c2ccc(O)cc2)oc2cc(O)ccc12 [7,4’-Dihydroxyflavone]
- IC50 for inhibition of ELK1-dependent promoter activation by AR [1]: No effect

Compound: CNC(=O)c1ccc(N2C(=S)N(c3ccc(C#N)c(C(F)(F)F)c3)C(=O)C2(C)C)cc1F [enzalutamide, reference compound]
- cell growth inhibition, MTT, LNCaP (LNCaP cells): only showed partial effects
- tumor growth, PDX-PR011 xenograft [6]: insensitive
- cell growth inhibition, MTT, 22Rv1 (22Rv1 cells): only showed partial effects
- cell growth inhibition, MTT, VCaP (VCaP cells): most sensitive

Compound: COc1cc(OC)c2c(=O)cc(-c3ccc(OC)c(OC)c3)oc2c1 [5,7,3’,4’-Tetramethoxyflavone]
- IC50 for inhibition of ELK1-dependent promoter activation by AR [1]: No effect

Compound: O=c1cc(-c2ccc(O)c(O)c2)oc2cc(O)ccc12 [7,3’,4’-Trihydroxyflavone]
- IC50 for inhibition of ELK1-dependent promoter activation by AR [1]: No effect
